The record followed here is ChEMBL document CHEMBL3886363, “Phenyl-tetrahydroisoquinoline derivatives” (2015).

Molecules are shown by their SMILES. Values joined by “and” are separate entries in the source; they are usually repeats but may differ in a detail not shown here. Equal values may be shown once.

Series [1] addresses T1, Cytochrome P450 11B2, mitochondrial (Homo sapiens, UniProt P19099).
T1 sequence (P19099 whole entry): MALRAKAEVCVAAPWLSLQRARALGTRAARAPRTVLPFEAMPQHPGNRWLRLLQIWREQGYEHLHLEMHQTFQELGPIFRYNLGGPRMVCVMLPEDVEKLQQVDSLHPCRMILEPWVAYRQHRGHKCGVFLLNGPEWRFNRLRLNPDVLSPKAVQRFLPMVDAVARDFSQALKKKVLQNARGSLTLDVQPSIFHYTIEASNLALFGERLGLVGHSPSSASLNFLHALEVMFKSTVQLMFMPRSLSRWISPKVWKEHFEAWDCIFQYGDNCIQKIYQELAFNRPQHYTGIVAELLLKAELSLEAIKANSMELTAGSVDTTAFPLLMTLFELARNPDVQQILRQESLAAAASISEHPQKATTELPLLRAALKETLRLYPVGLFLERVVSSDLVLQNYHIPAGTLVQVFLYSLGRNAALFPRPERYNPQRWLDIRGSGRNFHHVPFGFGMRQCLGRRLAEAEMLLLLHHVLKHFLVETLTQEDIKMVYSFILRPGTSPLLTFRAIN
Put plainly: (§1) Cellular Enzyme Assay: G-402 cells expressing CYP11 constructs were established as described above and maintained in McCoy's 5a Medium Modified, ATCC Catalog No. 30-2007 containing 10% FCS and 400 ug/ml G418 (Geneticin) at 37° C. under an atmosphere of 5% CO2/95% air. […] For assaying enzymatic activity, cells were plated onto 96 well plates and incubated for 16 h. An aliquot of the supernatant is then transferred and analyzed for the concentration of the expected product (Aldosterone for CYP11B2; Cortisol for CYP11B1). The concentrations of these steroids can be determined using HTRF assays from CisBio analyzing either Aldosterone or Cortisol. Format: cell-based. In general terms: Time-resolved FRET reads energy transfer from a long-lived donor to a nearby acceptor.

Series [2] concerns the target T2, Cytochrome P450 11B1, mitochondrial (Homo sapiens, UniProt P15538).
T2 sequence (P15538 whole entry): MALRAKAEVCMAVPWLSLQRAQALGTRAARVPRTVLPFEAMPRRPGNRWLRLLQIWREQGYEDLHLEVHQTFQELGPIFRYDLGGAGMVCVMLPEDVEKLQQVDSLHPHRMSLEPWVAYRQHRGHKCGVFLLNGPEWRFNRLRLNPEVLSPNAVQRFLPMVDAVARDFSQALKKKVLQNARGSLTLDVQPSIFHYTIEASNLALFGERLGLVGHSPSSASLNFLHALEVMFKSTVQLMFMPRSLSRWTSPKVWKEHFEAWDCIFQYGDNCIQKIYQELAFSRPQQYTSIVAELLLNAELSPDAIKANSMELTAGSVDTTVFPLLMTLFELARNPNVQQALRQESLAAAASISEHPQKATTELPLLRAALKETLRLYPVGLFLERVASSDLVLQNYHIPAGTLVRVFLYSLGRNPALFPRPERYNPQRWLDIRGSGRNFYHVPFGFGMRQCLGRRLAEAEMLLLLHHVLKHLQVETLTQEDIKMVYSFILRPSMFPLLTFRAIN
The description is as §1. In kind it is cell-based.

Series [3] deals with T1, Cytochrome P450 11B2, mitochondrial. Described as §1.

A word on the EC50: it is the concentration at which the effect is half-maximal. The low end stands for higher potency in that assay, the high end for lower potency in that assay. As for `CC1(C)Cc2c(-c3ccc(C(F)(F)F)c(F)c3)cncc2C1O` (single isomer, unassigned), the EC50 is 3.1 nM in series [1]; 304 nM and 792 nM in series [2]; 30.3 nM in series [3].
In the case of `CC1(C)Cc2c(-c3ccc(C#N)cc3)cncc2C1O` (single isomer, unassigned), the EC50 in series [3] is 2.2 nM and 12.1 nM.
Same read-out and setting: in the case of `CCC(=O)NC1CCc2c(-c3ccc(F)c(C)c3)cncc21` (single isomer, unassigned; form 1) it was 5770 nM.
For the molecule `CC1(C)Cc2c(-c3ccc(C(F)(F)F)cc3)cncc2C1O` (single isomer, unassigned), the EC50 in series [1] was 30.4 nM; in series [2] it was 2700 nM and 1640 nM; in series [3], 15.2 nM.
